Experimental data from ChEMBL document CHEMBL5154929, “Optimization of the Natural Product Calothrixin A to Discover Novel Dual Topoisomerase I and II Inhibitors with Improved Anticancer Activity” (J Med Chem, 2022).
pIC50: −log10 of the molar value. Activity calls are given as the source filed them. No cut-off for these calls is given here.

How the values were obtained:
[1] = Toxicity in BALB/c nude mouse xenografted with human A-375 cells assessed as tolerability treated after 7 days of tumor implantation on right flank subcutaneously at 20 mg/kg, iv administered once per 2 days for 14 days measured once every two days; type: organism-based; conditions: in vivo, 336 h, time 14 day
A-375 [2] = assay: Induction of apoptosis in human A-375 cells at 80 nM measured after 8 hrs by Annexin V-FITC and DAPI staining based flow cytometric analysis; type: functional
[3] = In vivo acute toxicity in Balb/C mouse assessed as tolerability at 50 mg/kg, iv administered once per 2 days for 7 days measured every other day; type: organism-based; conditions: 168 h, time 7 day
A-375 [4] = assay: In vivo induction of apoptosis in human A-375 cells xenografted in BALB/c nude mouse assessed as increase in C-caspase-3 level treated after 7 days of tumor implantation on right flank subcutaneously at 10 to 20 mg/kg, iv administered once per 2 days for 14 days by measuring TUNEL positive cells under a light microscope; type: functional, organism-based; conditions: dose 10-20 mg/kg, time 14.0 day
[5] = Toxicity in BALB/c nude mouse xenografted with human A-375 cells assessed as body weight loss treated after 7 days of tumor implantation on right flank subcutaneously at 10 to 20 mg/kg, iv administered once per 2 days for 14 days measured once every two days; type: organism-based; conditions: in vivo, 336 h, dose 10-20 mg/kg, time 14 day
[6] = In vivo acute toxicity in Balb/C mouse assessed as mortality at 10 to 50 mg/kg, iv administered once per 2 days for 7 days; type: organism-based; conditions: 168 h, dose 10-50 mg/kg, time 7 day
[7] = Clearance in Kunming mouse plasma at 10 mg/kg, iv administered as single dose measured after 5 to 360 mins by HPLC analysis; type: ADME, organism-based; conditions: time 5-360 min
[8] = Aqueous solubility of the compound in saline equilibrating for 24 hrs by HPLC analysis; type: physicochemical
A-375 [9] = assay: Induction of cell cycle arrest in human A-375 cells assessed as accumulation of cells at G2 phase at 40 nM incubated for 24 hrs by PI based flow cytometric analysis (RVB = 20.34%); type: functional
HCT-116 [10] = assay: Antiproliferative activity against doxorubicin resistant human HCT-116 cells measured after 72 hrs by MTT assay; type: functional, cell-based; conditions: HCT-116, 72 h
[11] = target: DNA topoisomerase 2-alpha (Homo sapiens) (UniProt P11388); assay: Poison activity at human topoisomerase II-alpha assessed as stabilization of enzyme-DNA cleavage complex by measuring nicked DNA formation at 100 uM after 60 mins by agarose gel electrophoresis method
Chain of DNA topoisomerase 2-alpha (Homo sapiens) (P11388 whole entry): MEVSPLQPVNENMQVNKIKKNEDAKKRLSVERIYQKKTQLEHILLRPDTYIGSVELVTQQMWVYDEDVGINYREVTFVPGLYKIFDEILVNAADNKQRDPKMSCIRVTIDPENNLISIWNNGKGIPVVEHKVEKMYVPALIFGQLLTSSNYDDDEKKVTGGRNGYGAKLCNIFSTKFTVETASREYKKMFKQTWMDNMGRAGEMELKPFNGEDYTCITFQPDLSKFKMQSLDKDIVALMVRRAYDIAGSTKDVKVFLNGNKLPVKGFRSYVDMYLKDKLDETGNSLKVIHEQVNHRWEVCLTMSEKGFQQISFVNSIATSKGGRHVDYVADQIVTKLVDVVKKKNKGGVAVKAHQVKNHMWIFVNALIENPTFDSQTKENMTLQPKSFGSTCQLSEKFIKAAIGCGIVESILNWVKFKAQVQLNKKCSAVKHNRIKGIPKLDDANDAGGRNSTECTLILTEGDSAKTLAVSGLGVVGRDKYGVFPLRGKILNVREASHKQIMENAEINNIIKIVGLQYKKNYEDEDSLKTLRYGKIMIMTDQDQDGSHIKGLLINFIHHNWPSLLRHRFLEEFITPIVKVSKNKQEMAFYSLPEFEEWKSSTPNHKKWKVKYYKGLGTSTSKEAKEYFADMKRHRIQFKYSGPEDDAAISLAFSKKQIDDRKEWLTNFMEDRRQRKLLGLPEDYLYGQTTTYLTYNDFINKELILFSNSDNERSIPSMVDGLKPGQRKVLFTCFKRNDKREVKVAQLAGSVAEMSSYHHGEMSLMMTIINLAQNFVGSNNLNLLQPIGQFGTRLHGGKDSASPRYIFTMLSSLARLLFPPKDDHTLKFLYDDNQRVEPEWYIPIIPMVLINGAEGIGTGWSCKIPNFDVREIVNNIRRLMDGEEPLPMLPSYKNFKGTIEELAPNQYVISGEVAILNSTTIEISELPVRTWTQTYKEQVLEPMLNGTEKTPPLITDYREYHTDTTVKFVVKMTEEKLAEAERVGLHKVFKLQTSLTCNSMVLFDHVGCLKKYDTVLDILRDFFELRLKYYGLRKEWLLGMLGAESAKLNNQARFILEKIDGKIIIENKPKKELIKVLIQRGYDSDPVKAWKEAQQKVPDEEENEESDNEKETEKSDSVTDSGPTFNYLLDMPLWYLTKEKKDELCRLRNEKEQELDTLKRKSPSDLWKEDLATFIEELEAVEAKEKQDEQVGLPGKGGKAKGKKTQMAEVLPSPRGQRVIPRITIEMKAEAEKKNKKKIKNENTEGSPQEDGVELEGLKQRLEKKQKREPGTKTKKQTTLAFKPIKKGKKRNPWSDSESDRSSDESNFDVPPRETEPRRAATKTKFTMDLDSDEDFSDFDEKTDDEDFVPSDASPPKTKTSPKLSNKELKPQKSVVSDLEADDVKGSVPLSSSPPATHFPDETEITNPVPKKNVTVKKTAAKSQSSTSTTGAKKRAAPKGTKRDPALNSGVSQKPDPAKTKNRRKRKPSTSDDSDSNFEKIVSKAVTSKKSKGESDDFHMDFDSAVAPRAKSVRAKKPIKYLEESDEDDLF

A-375 [12] = assay: Induction of cell cycle arrest in human A-375 cells assessed as accumulation of cells at G1 phase at 80 nM incubated for 24 hrs by PI based flow cytometric analysis (RVB = 52.94%); type: functional
MDA-MB-231 = assay: Cytotoxicity against human MDA-MB-231 cells expressing high level of topoisomerase I/II measured after 72 hrs by MTT assay; type: functional, cell-based; conditions: MDA-MB-231, 72 h
[13] = Volume of distribution in Kunming mouse plasma at 10 mg/kg, iv administered as single dose measured after 5 to 360 mins by HPLC analysis; type: ADME, organism-based; conditions: time 5-360 min
[14] = In vivo acute toxicity in Balb/C mouse assessed as pathological damage in liver at 50 mg/kg, iv administered once per 2 days for 7 days measured 24 hrs after last dose by H and E staining method; type: organism-based; conditions: 168 h, time 7 day
[15] = In vivo acute toxicity in Balb/C mouse assessed as pathological damage in kidney at 50 mg/kg, iv administered once per 2 days for 7 days measured 24 hrs after last dose by H and E staining method; type: organism-based; conditions: 168 h, time 7 day
[16] = target: T1, DNA topoisomerase 1 (Homo sapiens) (UniProt P11387); assay: Poison activity at human topoisomerase I assessed as stabilization of enzyme-DNA cleavage complex by measuring nicked DNA formation at 100 uM after 60 mins by agarose gel electrophoresis method
T1 sequence (whole entry): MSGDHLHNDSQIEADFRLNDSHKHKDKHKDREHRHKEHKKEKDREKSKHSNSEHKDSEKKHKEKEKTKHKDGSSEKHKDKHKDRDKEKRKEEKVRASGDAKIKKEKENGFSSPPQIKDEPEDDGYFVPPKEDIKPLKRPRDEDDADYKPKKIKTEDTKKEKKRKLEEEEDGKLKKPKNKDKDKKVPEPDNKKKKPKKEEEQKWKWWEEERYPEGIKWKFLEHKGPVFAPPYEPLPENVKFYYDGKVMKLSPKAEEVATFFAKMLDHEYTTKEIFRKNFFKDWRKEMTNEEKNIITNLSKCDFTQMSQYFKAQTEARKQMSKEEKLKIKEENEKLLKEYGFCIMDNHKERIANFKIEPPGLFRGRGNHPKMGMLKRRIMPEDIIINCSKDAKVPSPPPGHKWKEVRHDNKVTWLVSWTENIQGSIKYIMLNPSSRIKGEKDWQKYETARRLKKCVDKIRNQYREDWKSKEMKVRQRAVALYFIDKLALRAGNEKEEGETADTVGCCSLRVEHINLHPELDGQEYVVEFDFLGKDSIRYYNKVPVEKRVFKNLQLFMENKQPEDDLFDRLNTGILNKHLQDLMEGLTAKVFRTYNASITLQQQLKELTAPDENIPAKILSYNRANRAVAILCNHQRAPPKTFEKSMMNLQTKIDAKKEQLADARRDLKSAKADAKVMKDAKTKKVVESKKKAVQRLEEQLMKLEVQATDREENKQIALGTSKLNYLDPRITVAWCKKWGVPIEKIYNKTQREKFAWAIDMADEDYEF

[17] = target: DNA topoisomerase 2-alpha (Homo sapiens) (UniProt P11388); assay: Inhibition of human DNA topoisomerase II-alpha relaxation activity at 100 uM incubated for 30 mins by chemiDoc system
A549 = assay: Cytotoxicity against human A549 cells expressing high level of topoisomerase I/II measured after 72 hrs by MTT assay; type: functional, cell-based; conditions: A549, 72 h
A-375 [18] = assay: Induction of apoptosis in human A-375 cells assessed as increase in expression level of C-caspase-3 measured after 24 hrs by Western blotting analysis; type: functional, cell-based; conditions: dose 40-120 nM, DDE = dose-dependent effect
[19] = In vivo acute toxicity in Balb/C mouse assessed as pathological damage in spleen at 50 mg/kg, iv administered once per 2 days for 7 days measured 24 hrs after last dose by H and E staining method; type: organism-based; conditions: 168 h, time 7 day
[20] = Tmax in Kunming mouse plasma at 10 mg/kg, iv administered as single dose measured after 5 to 360 mins by HPLC analysis; type: ADME, organism-based; conditions: time 5-360 min
HCT-116 [21] = assay: Inhibition of colony formation in human HCT-116 cells at 20 to 40 nM incubated for 48 hrs by crystal violet staining method; type: functional, cell-based; conditions: dose 20-40 nM
A-375 [22] = assay: Induction of cell cycle arrest in human A-375 cells assessed as accumulation of cells at G1 phase at 20 nM incubated for 24 hrs by PI based flow cytometric analysis (RVB = 52.94%); type: functional
[23] = Microsomal stability in mouse liver microsomes assessed as half life measured at 2 ug/ml upto 60 mins in presence of NADPH generating system and UGT incubation system by phase II metabolic stability kit method; type: ADME, Microsome; conditions: dose 2 µg/ml

Compound: O=C1c2c[n+]([O-])c3ccccc3c2C(=O)c2c1c1ccccc1n2Cc1cn([C@@H]2C[C@H](O)[C@@H](CO)O2)nn1
- Activity [1]: Non-Toxic
- Activity (A-375 [2]): 7.14%
- Activity [3]: Non-Toxic
- Activity (A-375 [4]): Active
- Activity [5]: Non-Toxic
- Activity [6]: Non-Toxic
- clearance [7]: 1 mL/min/kg
- solubility at 24 h [8]: > 5000 µg/mL
- Activity (A-375 [9]): 27.87%
- pIC50 (HCT-116 [10]): 7.15
- Activity [11]: Active
- Activity (A-375 [12]): 34.99%
- pIC50 (MDA-MB-231): 6.89
- Vd [13]: 0.234 L/kg
- Activity [14]: Non-Toxic
- Activity [15]: Non-Toxic
- Activity [16]: Active
- inhibition [17]: Active
- pIC50 (A549): 6.92
- Activity (A-375 [18]): Dde
- Activity [19]: Non-Toxic
- Tmax [20]: 5 min
- inhibition (HCT-116 [21]): Active
- Activity (A-375 [22]): 32.45%
- half-life at 2 ug/ml [23]: 40 min
